Data on 18 compounds can be found in patent US20230303552A1, “ARYLSULFONYL DERIVATIVES AND THEIR USE AS MUSCARINIC ACETYLCHOLINE RECEPTOR M5 INHIBITORS” (Vanderbilt University, priority 2020, published 2023).

This experiment concerns the target T1, human M5 receptors (hM5) (Homo sapiens, UniProt P08912).
T1 construct: expressed in transfected cells
T1 sequence (P08912 1-532): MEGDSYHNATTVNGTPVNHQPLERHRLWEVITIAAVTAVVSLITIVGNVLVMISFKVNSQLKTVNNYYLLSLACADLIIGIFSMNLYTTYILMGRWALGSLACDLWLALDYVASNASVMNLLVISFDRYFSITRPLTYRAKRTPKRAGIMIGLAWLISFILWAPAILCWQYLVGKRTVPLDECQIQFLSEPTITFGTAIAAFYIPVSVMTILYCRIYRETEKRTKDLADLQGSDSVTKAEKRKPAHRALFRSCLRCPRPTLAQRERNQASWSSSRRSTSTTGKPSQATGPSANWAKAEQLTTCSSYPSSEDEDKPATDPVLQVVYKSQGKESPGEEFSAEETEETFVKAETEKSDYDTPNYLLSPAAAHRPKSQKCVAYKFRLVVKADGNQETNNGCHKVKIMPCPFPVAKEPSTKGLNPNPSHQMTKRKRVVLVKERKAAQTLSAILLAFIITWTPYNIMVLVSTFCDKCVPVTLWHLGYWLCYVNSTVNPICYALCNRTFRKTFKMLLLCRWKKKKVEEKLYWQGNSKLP
Briefly: Cell-based functional calcium mobilization assay of mAChR M5 activity (inhibition of EC80 acetylcholine response) in CHO cells. As to conditions: CHO cells stably expressing hM5; for IC50: calcium flux (Fluo-4), EC80 acetylcholine addition; for EC80 MIN: minimum of EC80 acetylcholine response, normalized to maximum acetylcholine response. As to the method: All functional cell-based assays were performed essentially as previously described (Marlo et al., Mol.Pharm. 2009, 75(3), 577-588; Brady et al., J. Pharm. & Exp. Ther. 2008, 327, 941-953). Initial, single point (10 µM) competitive and non-competitive inhibitor characterization was performed in stable Chinese Hamster Ovary (CHO) cell lines constitutively expressing human M5 receptors. These were plated at 15,000 cells per 20 µL per well in Greiner 384-well black-walled, TC-treated, clear-bottomed plates (Fisher) in Ham’s F12 medium supplemented with 10% FBS and 20 mM HEPES. Cells were incubated overnight at 37° C. under 5% CO2. The following day, medium was exchanged with assay buffer (Hank’s Balanced Salt Solution supplemented with 20 mM HEPES and 2.5 mM Probenecid, pH 7.4) leaving 20 µL of assay buffer in each well. This was followed by the addition of 20 µL of 2.3 µM of Fluo-4 AM (Invitrogen) in assay buffer (final concentration 1.15 µM). The cells were then incubated 50 minutes at 37° C. under 5% CO2. The assay buffer plus dye was then exchanged with fresh assay buffer leaving a volume of 20 µL in each well. Test compounds were diluted into assay buffer to a 2X (20 µM) concentration in 0.2% dimethylsulfoxide (DMSO) in columns 3 - 22 with matching DMSO concentration in columns 1, 2, 23, and […]; compounds were added to the assay for a final concentration of 10 µM and a final DMSO concentration of 0.1%. Acetylcholine (Sigma-Aldrich) was prepared to provide 5X concentrations of EC20, EC80, and ECmax in the triple-addition assay, providing a signal window to view agonism, potentiation, and inhibition of the acetylcholine response as well as a means to normalize to the maximum acetylcholine response.
Either an FDSS (Hamamatsu) or Panoptic (WaveFront Biosciences) kinetic imaging plate reader was used for assay execution and measurement of calcium flux. After establishing baseline fluorescence, test compounds (20 µL) were added to the cells using the reader’s integrated pipettor and allowed to equilibrate for 140 seconds before addition of the EC20 concentration of acetylcholine (10 µL) along with vehicle in selected DMSO-only wells in the outer two columns. The EC80 concentration of acetylcholine (10 µL) was added 125 seconds after the EC20 addition along with ECmax concentration in the wells receiving vehicle in the second addition. The raw fluorescence data from each well was normalized to the corresponding initial fluorescence reading (static ratio). The maximum fluorescence value following each addition was determined and the minimum value within that same timeframe was subtracted for each well then normalized to the average of the ECmax maximum-minimum response, providing a %AChmax value for each addition for each well. The single point values represent mean values determined within the EC80 addition timeframe obtained from at least three independent determinations performed in triplicate or greater (error bars represent +/- SEM) unless otherwise specified.
Further characterization of competitive and non-competitive inhibitor compounds (compound potency and mAChR subtype-selectivity) was performed on the FDSS with calcium mobilization assays performed as previously described (Marlo et al., 2009; Brady et al., 2008) and in a format similar to that described above using the same reagents. CHO cells stably expressing hM1, hM2/Gqi5, hM3, hM4/Gqi5, hM5, rM1, rM2/Gqi5, rM3, rM4/Gqi5, or rMs were plated in the manner described above. A ten-point concentration range of test compound was serial diluted in assay buffer to 2X final concentration and acetylcholine was diluted in assay buffer to 5X of the EC20 and EC80 concentrations, determined empirically and 5X maximal (2 mM final concentration) stock concentrations. FDSS protocols were carried out as described above; the static ratio was calculated and the minimum response subtracted from the maximum response within the timeframe of each addition. […]

Consider `O=C(Nc1ccc2scnc2c1)[C@H]1CCN(S(=O)(=O)c2cccc3nsnc23)C[C@@H]1F` (racemic) [Compound 81, trans-(rac)-1-(benzo[c][1,2,5]thiadiazol-4-ylsulfonyl)-N-(benzo[d]thiazol-5-yl)-3-fluoropiperidine-4-carboxamide], for which the half-inhibitory concentration (IC50) (as a rule, the concentration needed to halve the response being measured) is 500 nM and the “EC80 MIN” value came out at 5%. With `O=C(Nc1ccc2scnc2c1)[C@H]1CCN(S(=O)(=O)c2cccnc2)C[C@@H]1F` (racemic) [Compound 82, trans-(rac)-N-(benzo[d]thiazol-5-yl)-3-fluoro-1-(pyridin-3-ylsulfonyl)piperidine-4-carboxamide], the half-maximal inhibitory concentration (IC50) is 95 nM and the “EC80 MIN” value is on record as 2%.

In the case of `O=C(Nc1ccc2scnc2c1)[C@H]1CCN(S(=O)(=O)c2ccc3c(c2)CCO3)C[C@@H]1F` (racemic) [Compound 86, Trans-(rac)-N-(Benzo[d]thiazol-5-yl)-1-((2,3-Dihydrobenzofuran-5-yl)Sulfonyl)-3-Fluoropiperidine-4-Carboxamide], the IC50 was 177 nM and the “EC80 MIN” value turned out to be 2%. On to `CC1Cc2cc(S(=O)(=O)N3CCC(C(=O)Nc4ccc5scnc5c4)CC3)ccc2O1` (racemic) [Compound 87, (rac)-N-(benzo[d]thiazol-5-yl)-1-((2-methyl-2.3-dihydrobenzofuran-5-yl)sulfonyl)piperidine-4-carboxamide], for which the IC50 was more than 10000 nM. `C[C@@H]1CN(S(=O)(=O)c2ccc3c(c2)CCO3)CC[C@@H]1C(=O)Nc1ccc2scnc2c1` (racemic) [Compound 92, cis-(rac)-,N^_ (benzo[d]thiazol-5-yl)-1-((2,3-dihydrobenzofuran-5-yl)sulfonyl)-3-methylpiperidine-4-carboxamide]: the concentration for half-maximal inhibition (IC50) stood at 631 nM and the “EC80 MIN” value is 4%. In the case of `C[C@@H]1CN(S(=O)(=O)c2ccc3ncsc3c2)CC[C@@H]1C(=O)Nc1ccc2scnc2c1` (racemic) [Compound 93, cis-(rac)-N-(benzo[d]thiazol-5-y1)-1-(benzo[d]thiazol-6-ylsulfonyl)-3-methylpiperidine-4-carboxamide], the half-maximal inhibitory concentration (IC50) worked out at 2940 nM and the “EC80 MIN” value turned out to be 4%. The like results for `C[C@@H]1CN(S(=O)(=O)c2ccc(Cl)nc2)CC[C@@H]1C(=O)Nc1ccc2scnc2c1` (racemic) [Compound 94, cis-(rac)-N-(benzo[d]thiazol-5-yl)-1-((6-chloropyridin-3-yl)sulfonyl)-3-methylpiperidine-4-carboxamide] were, in that order, 4570 nM and 4%. The like results for `Cc1nn(C)cc1S(=O)(=O)N1CC[C@H](C(=O)Nc2ccc3scnc3c2)[C@H](C)C1` (racemic) [Compound 95, cis-(rac)-,N^_ (benzo[d]thiazol-5-yl)-1-((1,3-dimethyl-1H-pyrazol-4-yl)sulfonyl)-3-methylpiperidine-4-carboxamide] were, in that order, 4490 nM and 5%. The corresponding values for `C[C@@H]1CN(S(=O)(=O)c2cccc3nsnc23)CC[C@@H]1C(=O)Nc1ccc2scnc2c1` (racemic) [Compound 96, cis-(rac)-1-(benzo[c][1,2,5]thiadiazol-4-ylsulfonyl)-N-(benzo[d]thiazol-5-yl)-3-methylpiperidine-4-carboxamide] are 1110 nM and 3%. Consider `C[C@@H]1C[C@H](C(=O)Nc2ccc3scnc3c2)CCN1S(=O)(=O)c1ccc2c(c1)CCO2` (racemic) [Compound 97, cis-(rac)-N-(benzo[d]thiazol-5-yl)-1-((2,3-dihydrobenzofuran-5-yl)sulfonyl)-2-methylpiperidine-4-carboxamide], for which the concentration for half-maximal inhibition (IC50) was 159 nM and the “EC80 MIN” value was found to be 2%. The like results for `Cc1nn(C)cc1S(=O)(=O)N1CC[C@@H](C(=O)Nc2ccc3scnc3c2)C[C@H]1C` (racemic) [Compound 98, cis-(rac)-,N^_ (benzo[d]thiazol-5-yl)-1-((1,3-dimethyl-1H-pyrazol-4-yl)sulfonyl)-2-methylpiperidine-4-carboxamide] were, in that order, 324 nM and 3%.

Regarding `C[C@@H]1C[C@H](C(=O)Nc2ccc3scnc3c2)CCN1S(=O)(=O)c1cccc2nsnc12` (racemic) [Compound 99, cis-(rac)-1-(benzo[c][1,2.5]thiadiazol-4-ylsulfonyl)-N-(benzo[d]thiazol-5-yl)-2-methylpiperidine-4-carboxamide], the IC50 turned out to be 389 nM and the “EC80 MIN” value was found to be 3%. With `C[C@@H]1CN(S(=O)(=O)c2cccnc2)CC[C@@H]1C(=O)Nc1ccc2scnc2c1` (racemic) [Compound 103, cis-(rac)-N-(benzo[d]thiazol-5-yl)-3-methyl-1-(pyridin-3-ylsulfonyl)piperidine-4-carboxamide], the IC50 is more than 10000 nM and the “EC80 MIN” value came out at 5%. The corresponding values for `C[C@H]1CN(S(=O)(=O)c2ccc3c(c2)CCO3)CC[C@@H]1C(=O)Nc1ccc2scnc2c1` (racemic) [Compound 116, trans-(rac)-N-(benzo[d]thiazol-5-yl)-1-((2,3-dihydrobenzofuran-5-yl)sulfonyl)-3-methylpiperidine-4-carboxamide] are 1540 nM and 3%. Consider `C[C@H]1CN(S(=O)(=O)c2ccc3ncsc3c2)CC[C@@H]1C(=O)Nc1ccc2scnc2c1` (racemic) [Compound 117, trans-(rac)-N-(benzo[d]thiazol-5-yl)-1-(benzo[d]thiazol-6-ylsulfonyl)-3-methylpiperidine-4-carboxamide], for which the IC50 came to 8920 nM and the “EC80 MIN” value turned out to be 5%.

Take `C[C@H]1CN(S(=O)(=O)c2ccc(Cl)nc2)CC[C@@H]1C(=O)Nc1ccc2scnc2c1` (racemic) [Compound 118, trans-(rac)-N-(benzo[d]thiazol-5-yl)-1-((6-chloropyridin-3-yl)sulfonyl)-3-methylpiperidine-4-carboxamide]: the IC50 came out at 803 nM and the “EC80 MIN” value was 4%. The corresponding values for `C[C@H]1CN(S(=O)(=O)c2cccnc2)CC[C@@H]1C(=O)Nc1ccc2scnc2c1` (racemic) [Compound 119, trans-(rac)-N-(benzo[d]thiazol-5-yl)-3-methyl-1-(pyridin-3-ylsulfornyl)piperidine-4-carboxamide] are 982 nM and 4%.

For the compound `C[C@@H]1C[C@@H](C(=O)Nc2ccc3scnc3c2)CCN1S(=O)(=O)c1ccc(Cl)nc1` (racemic) [Compound 120, trans-(rac)-N-(benzo[d]thiazol-5-yl)-1-((6-chloropyridin-3-yl)sulfonyl)-2-methylpiperidine-4-carboxamide], the IC50 stood at 275 nM and the “EC80 MIN” value worked out at 3%.
